The target of one assay is T1, FGFR2 (N549H) (Homo sapiens, UniProt P21802, N549H).
T1 construct: purchased Millipore 14-742
Briefly: fluorescent ELISA assay for inhibitors of FGFR2 kinase. Type of assay: biochemical. Particulars: Pyk2 peptide substrate, 60 minutes. Here is the method: The enzymatic assays described herein are conducted according to the following procedures from commercially available reagents. In one non-limiting example, a fluorescent ELISA assay is used to identify and characterize inhibitors of FGFR2 kinase as described herein. This heterogeneous assay utilizes a biotinylated peptide with a tyrosine motif as a substrate and an anti-phospho-tyrosine antibody to measure phosphorylation of the substrate. The reaction is initiated by adding the test compound, 37 μM Pyk2 substrate (Midwest Biotech, Cat. #MBT2383), 12.5 μM ATP (Roche, Cat. #11 140 965 001) and 0.5 μM FGFR2 enzyme (Millipore, Cat. #14-742) sequentially to a non-binding polypropylene V-well plate. All reagents are in an assay buffer consisting of: 50 mM Tris-HCL, 0.02 mg/ml BSA, 10 mM MgCl2, 0.1 mM Na3VO4, 1 mM EGTA, 75 μM ATP, 0.01% NP-40, 2 mM DTT and 10% glycerol. The reaction is incubated for 60 minutes. As the reaction proceeds, FGFR2 phosphorylates tyrosines in the peptide. The reaction mixture is then moved to a blocked streptavidin-coated Nunc Maxisorb plate (coated with 100 ng streptavidin from Pierce (Cat. #15-124) per well), allowing for the capture of the biotinylated peptide. Peptides are captured for 30 minutes at room temperature, the phosphorylation of peptides continues during this phase. The reaction is stopped by washing the streptavidin-coated plate 6 times with TBST. Phosphorylated peptide is detected by adding anti-phospho-tyrosine antibody (Cell Signaling, Cat. #9411, diluted 1:3000) to the streptavidin-coated plate. Unbound anti-phospho-tyrosine antibody is removed by washing the streptavidin-coated plate 6 times with TBST. Secondary detection is performed using alkaline phosphatase tagged goat anti-mouse antibody (Pierce, Cat. #31320, diluted 1:4000) for one hour. Unbound secondary antibody is removed by washing the streptavidin-coated plate 6 times with TBST. The fluorescent readout is initiated by adding to the streptavidin-coated plate Promega Attophos substrate (Promega, Cat. #S1000, dilution=6 mg/10 ml), which, when dephosphorylated by alkaline phosphatase, emits a fluorescent signal of 595 nm in wavelength when excited by a signal of 400 nm in wavelength. The reading of the 595 nm signal is done on the Perkin Elmer Envision system. Compounds which prevent FGFR2 from phosphorylating the peptide result in a lower fluorescent signal. The 595 nm fluorescent signal is directly proportional to the activity of FGFR2. Thus, the inhibition of FGFR2 by compounds is monitored by the decrease in the 595 nm fluorescent signal.
(In general: An ELISA detects its analyte on a solid surface through an enzyme-linked reagent.)

The test system of a further assay is cancer cells. Briefly: MTS cell growth inhibition assay (72 hours). It counts as cell-based. Summed up:
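Cells in DMEM with 1% FBS, seeded 18 h, then compound-treated 72 h at 37 °C. Viability by MTS/PMS for 4 h, formazan absorbance at 492 nm; IC50 taken as concentration giving 50% absorbance drop, activity banded by percent inhibition.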

Setting [1] is: Homo sapiens, DLD-1, 72 h, DLD-1 cells, read-out: DLD-1 MTS 72 hr at 10 μM.
[2] abbreviates: Homo sapiens, KATO III, 72 h, KATO III cells, read-out: KATO III MTS 72 hr at 10 μM.
Where [3] appears, read: Homo sapiens, MDA-MB-231, 72 h, MDA-MB-231 cells, read-out: MDA-MB-231 MTS 72 hr at 10 μM.
[4] abbreviates: Homo sapiens, NCI-H1299, 72 h, NCI-H1299 cells, read-out: NCI-H1299 MTS 72 hr at 10 μM.
[5] abbreviates: PaCa-2, 72 h, PACA-2 cells, read-out: PACA-2 MTS 72 hr at 10 μM.

The values below come from patent US8273754B2, “Substituted 1H-pyrazolo[3,4-D]pyrimidine-6-amine compounds” (ArQule, Inc., priority 2008, dated 2012).

As a reminder, the pIC50 is the IC50 on a negative log10 scale, so that one unit is a factor of ten. Higher therefore signals a small IC50.

The structures appear in SMILES notation. pIC50: −log10 of the molar value. Where two headings read alike, the source gives them in different places.

T1 sequence (P21802 22-821 N549H): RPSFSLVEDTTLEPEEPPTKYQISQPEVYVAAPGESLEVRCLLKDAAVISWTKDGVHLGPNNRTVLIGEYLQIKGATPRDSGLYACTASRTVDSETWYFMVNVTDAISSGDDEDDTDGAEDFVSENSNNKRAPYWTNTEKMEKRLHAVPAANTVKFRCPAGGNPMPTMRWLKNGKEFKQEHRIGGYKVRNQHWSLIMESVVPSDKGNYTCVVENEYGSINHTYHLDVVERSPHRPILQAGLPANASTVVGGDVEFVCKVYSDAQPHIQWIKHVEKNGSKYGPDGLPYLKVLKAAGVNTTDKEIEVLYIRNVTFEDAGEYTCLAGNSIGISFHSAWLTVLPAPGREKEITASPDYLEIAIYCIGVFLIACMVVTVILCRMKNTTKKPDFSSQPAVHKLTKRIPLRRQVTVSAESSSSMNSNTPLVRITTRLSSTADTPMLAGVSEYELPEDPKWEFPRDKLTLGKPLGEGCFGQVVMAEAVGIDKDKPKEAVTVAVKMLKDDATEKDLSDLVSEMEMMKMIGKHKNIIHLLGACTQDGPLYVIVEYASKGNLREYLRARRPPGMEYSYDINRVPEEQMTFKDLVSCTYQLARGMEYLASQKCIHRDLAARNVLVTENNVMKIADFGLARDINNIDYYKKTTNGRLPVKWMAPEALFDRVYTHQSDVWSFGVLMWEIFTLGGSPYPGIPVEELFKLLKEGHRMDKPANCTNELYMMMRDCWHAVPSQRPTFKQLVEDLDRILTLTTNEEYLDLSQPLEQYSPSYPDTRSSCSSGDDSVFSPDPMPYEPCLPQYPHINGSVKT

On to `Nc1nc(NC2Cc3ccccc3N(S(=O)(=O)c3c(F)cccc3F)C2)c2cn[nH]c2n1` (stereo not drawn) [Compound 58, N4-(1-(2,6-difluorophenylsulfonyl)-1,2,3,4-tetrahydroquinolin-3-yl)-1H-pyrazolo[3,4-d]pyrimidine-4,6-diamine], for which the pIC50 against FGFR2 (N549H) is 4.89. The inhibition at 10 µM with cancer cells (setting [1]), with cancer cells (setting [2]), in the assay on cancer cells (setting [3]), in the assay with cancer cells (setting [4]) and with cancer cells (setting [5]) was below 50% in each case.
On to `COc1ccc(CN2CC(Nc3nc(N)nc4[nH]ncc34)Cc3ccccc32)cc1OC` (stereo not drawn) [Compound 123, N4-[1-(3,4-dimethoxybenzyl)-1,2,3,4-tetrahydroquinolin-3-yl]-1H-pyrazolo[3,4-d]pyrimidine-4,6-diamine], for which the negative logarithm of the IC50 (pIC50) against FGFR2 (N549H) was below 4.52. Also, the inhibition at 10 µM in the assay on cancer cells (setting [1]), in the assay with cancer cells (setting [2]), with cancer cells (setting [3]), in the assay on cancer cells (setting [4]) and in the assay with cancer cells (setting [5]) was below 50% throughout.
On FGFR2 (N549H), `Nc1nc(NC2Cc3ccccc3N(S(=O)(=O)c3ccc(F)c(Cl)c3)C2)c2cn[nH]c2n1` (stereo not drawn) [Compound 43, N4-(1-(3-chloro-4-fluorophenylsulfonyl)-1,2,3,4-tetrahydroquinolin-3-yl)-1H-pyrazolo[3,4-d]pyrimidine-4,6-diamine] gave a pIC50 of 6.57. The inhibition at 10 µM in the assay on cancer cells (setting [1]), in the assay on cancer cells (setting [2]), with cancer cells (setting [3]), in the assay on cancer cells (setting [4]) and in the assay on cancer cells (setting [5]) was above 79% throughout.
For `CC(=O)c1ccc(S(=O)(=O)N2CC(Nc3nc(N)nc4[nH]ncc34)Cc3ccccc32)cc1` (stereo not drawn) [Compound 48, 1-(4-(3-(6-amino-1H-pyrazolo[3,4-d]pyrimidin-4-ylamino)-3,4-dihydroquinolin-1(2H)-ylsulfonyl)phenyl)ethanone], on FGFR2 (N549H), the negative-log IC50 (pIC50) was 4.76. The inhibition at 10 µM in the assay with cancer cells (setting [1]) was above 79%; with cancer cells (setting [2]), 50 to 79%; in the assay with cancer cells (setting [3]) it was above 79%; in the assay on cancer cells (setting [4]), below 50%; in the assay with cancer cells (setting [5]), above 79%.
On FGFR2 (N549H), `Nc1nc(NC2Cc3ccccc3N(S(=O)(=O)c3ccccc3Cl)C2)c2cn[nH]c2n1` (stereo not drawn) [Compound 52, N4-(1-(2-chlorophenylsulfonyl)-1,2,3,4-tetrahydroquinolin-3-yl)-1H-pyrazolo[3,4-d]pyrimidine-4,6-diamine] gave a pIC50 of 5.92. The inhibition at 10 µM in the assay with cancer cells (setting [1]), in the assay with cancer cells (setting [2]), in the assay with cancer cells (setting [3]), in the assay with cancer cells (setting [4]) and in the assay with cancer cells (setting [5]) was below 50% each time.
Consider `Nc1nc(NC2Cc3ccccc3N(Cc3ccc(F)cc3)C2)c2cn[nH]c2n1` (stereo not drawn) [Compound 6, N^4-(1-(4-fluorobenzyl)-1,2,3,4-tetrahydroquinolin-3-yl)-1H-pyrazolo[3,4-d]pyrimidine-4,6-diamine], for which the pIC50 against FGFR2 (N549H) is 6.05. In addition, the inhibition at 10 µM in the assay with cancer cells (setting [1]), in the assay with cancer cells (setting [2]), in the assay on cancer cells (setting [3]), with cancer cells (setting [4]) and in the assay on cancer cells (setting [5]) was above 79% each time.
`Cc1cccc(CN2CC(Nc3nc(N)nc4[nH]ncc34)Cc3ccccc32)c1` (stereo not drawn) [Compound 122, N4-[1-(3-methylbenzyl)-1,2,3,4-tetrahydroquinolin-3-yl]-1H-pyrazolo[3,4-d]pyrimidine-4,6-diamine] showed a pIC50 against FGFR2 (N549H) of 5.78. The inhibition at 10 µM in the assay with cancer cells (setting [1]) was below 50%; in the assay on cancer cells (setting [2]), 50 to 79%; in the assay on cancer cells (setting [3]), below 50%; in the assay on cancer cells (setting [4]), below 50%; in the assay with cancer cells (setting [5]), 50 to 79%.
On FGFR2 (N549H), `COc1ccccc1CN1CC(Nc2nc(N)nc3[nH]ncc23)Cc2ccccc21` (stereo not drawn) [Compound 132, N4-[1-(2-methoxybenzyl)-1,2,3,4-tetrahydroquinolin-3-yl]-1H-pyrazolo[3,4-d]pyrimidine-4,6-diamine] showed a negative-log IC50 (pIC50) of 4.65. The inhibition at 10 µM with cancer cells (setting [1]), in the assay with cancer cells (setting [2]), with cancer cells (setting [3]), with cancer cells (setting [4]) and with cancer cells (setting [5]) was below 50% in each case.
Compound `CC(C)(C)c1ccc(CN2CC(Nc3nc(N)nc4[nH]ncc34)Cc3ccccc32)cc1` (stereo not drawn) [Compound 131, N4-[1-(4-tert-butylbenzyl)-1,2,3,4-tetrahydroquinolin-3-yl]-1H-pyrazolo[3,4-d]pyrimidine-4,6-diamine] showed a pIC50 against FGFR2 (N549H) below 4.52. Moreover, the inhibition at 10 µM with cancer cells (setting [1]), in the assay with cancer cells (setting [2]), in the assay with cancer cells (setting [3]), in the assay on cancer cells (setting [4]) and with cancer cells (setting [5]) was below 50% each time.
At FGFR2 (N549H), `CN(c1nc(N)nc2[nH]ncc12)C1Cc2ccccc2N(Cc2ccc(Cl)c(Cl)c2)C1` (stereo not drawn) [Compound 10, N^4-(1-(3,4-dichlorobenzyl)-1,2,3,4-tetrahydroquinolin-3-yl)-N^4-methyl-1H-pyrazolo[3,4-d]pyrimidine-4,6-diamine] gave a negative-log IC50 (pIC50) of 5.81. The inhibition at 10 µM with cancer cells (setting [1]) was below 50%; in the assay on cancer cells (setting [2]) it was 50 to 79%; in the assay on cancer cells (setting [3]), below 50%; in the assay on cancer cells (setting [4]), below 50%; with cancer cells (setting [5]), below 50%.
Compound `Cc1ccc(-c2ccc(S(=O)(=O)N3CC(Nc4nc(N)nc5[nH]ncc45)Cc4ccccc43)cc2)cc1` (stereo not drawn) [Compound 50, N4-(1-(4′-methylbiphenyl-4-ylsulfonyl)-1,2,3,4-tetrahydroquinolin-3-yl)-1H-pyrazolo[3,4-d]pyrimidine-4,6-diamine] gave a pIC50 at FGFR2 (N549H) below 4.52. Besides, the inhibition at 10 µM is 50 to 79% in the assay with cancer cells (setting [1]); 50 to 79% in the assay on cancer cells (setting [2]); below 50% in the assay on cancer cells (setting [3]); below 50% in the assay on cancer cells (setting [4]); 50 to 79% with cancer cells (setting [5]).
`Nc1nc(NC2Cc3ccccc3N(Cc3ccccc3)C2)c2cn[nH]c2n1` (stereo not drawn) [Compound 125, N4-(1-benzyl-1,2,3,4-tetrahydroquinolin-3-yl)-1H-pyrazolo[3,4-d]pyrimidine-4,6-diamine]: the pIC50 on FGFR2 (N549H) was 4.77. Further, the inhibition at 10 µM in the assay with cancer cells (setting [1]), in the assay on cancer cells (setting [2]), in the assay with cancer cells (setting [3]), in the assay with cancer cells (setting [4]) and in the assay with cancer cells (setting [5]) was below 50% throughout.
`Nc1nc(NC2Cc3ccccc3N(S(=O)(=O)c3cccc(C(F)(F)F)c3)C2)c2cn[nH]c2n1` (stereo not drawn) [Compound 19, N4-(1-(3-(trifluoromethyl)phenylsulfonyl)-1,2,3,4-tetrahydroquinolin-3-yl)-1H-pyrazolo[3,4-d]pyrimidine-4,6-diamine] showed a negative logarithm of the IC50 (pIC50) on FGFR2 (N549H) of 5.93. The inhibition at 10 µM with cancer cells (setting [1]), with cancer cells (setting [2]), in the assay with cancer cells (setting [3]), in the assay on cancer cells (setting [4]) and in the assay on cancer cells (setting [5]) was below 50% throughout.
`COc1cccc(CN2CC(Nc3nc(N)nc4[nH]ncc34)Cc3ccccc32)c1` (stereo not drawn) [Compound 127, N4-[1-(3-methoxybenzyl)-1,2,3,4-tetrahydroquinolin-3-yl]-1H-pyrazolo[3,4-d]pyrimidine-4,6-diamine] showed a pIC50 against FGFR2 (N549H) of 4.96. In addition, the inhibition at 10 µM is below 50% in the assay on cancer cells (setting [1]); 50 to 79% with cancer cells (setting [2]); below 50% with cancer cells (setting [3]); below 50% with cancer cells (setting [4]); 50 to 79% with cancer cells (setting [5]).
Take `Nc1nc(NC2Cc3ccccc3N(S(=O)(=O)c3cccc(F)c3)C2)c2cn[nH]c2n1` (stereo not drawn) [Compound 18, N4-(1-(3-fluorophenylsulfonyl)-1,2,3,4-tetrahydroquinolin-3-yl)-1H-pyrazolo[3,4-d]pyrimidine-4,6-diamine]: the pIC50 on FGFR2 (N549H) was 6.43. For the same compound, the inhibition at 10 µM with cancer cells (setting [1]), in the assay on cancer cells (setting [2]), in the assay with cancer cells (setting [3]), in the assay on cancer cells (setting [4]) and with cancer cells (setting [5]) was below 50% throughout.
